From US11339130B1 (Blade Therapeutics, Inc., priority 2016, dated 2022)
Counter-ions that a name gives are not always drawn. Like-named read-outs stand apart in the source and are kept apart here.

Key:
Human Calpain 1/NS1 = target: T1, Human Calpain 1/NS1 (Homo sapiens, UniProt P07384); test: Calpain inhibition continuous fluorescence (FRET) assay, Human Calpain 1/NS1; format: biochemical
T1 sequence (P07384 1-714): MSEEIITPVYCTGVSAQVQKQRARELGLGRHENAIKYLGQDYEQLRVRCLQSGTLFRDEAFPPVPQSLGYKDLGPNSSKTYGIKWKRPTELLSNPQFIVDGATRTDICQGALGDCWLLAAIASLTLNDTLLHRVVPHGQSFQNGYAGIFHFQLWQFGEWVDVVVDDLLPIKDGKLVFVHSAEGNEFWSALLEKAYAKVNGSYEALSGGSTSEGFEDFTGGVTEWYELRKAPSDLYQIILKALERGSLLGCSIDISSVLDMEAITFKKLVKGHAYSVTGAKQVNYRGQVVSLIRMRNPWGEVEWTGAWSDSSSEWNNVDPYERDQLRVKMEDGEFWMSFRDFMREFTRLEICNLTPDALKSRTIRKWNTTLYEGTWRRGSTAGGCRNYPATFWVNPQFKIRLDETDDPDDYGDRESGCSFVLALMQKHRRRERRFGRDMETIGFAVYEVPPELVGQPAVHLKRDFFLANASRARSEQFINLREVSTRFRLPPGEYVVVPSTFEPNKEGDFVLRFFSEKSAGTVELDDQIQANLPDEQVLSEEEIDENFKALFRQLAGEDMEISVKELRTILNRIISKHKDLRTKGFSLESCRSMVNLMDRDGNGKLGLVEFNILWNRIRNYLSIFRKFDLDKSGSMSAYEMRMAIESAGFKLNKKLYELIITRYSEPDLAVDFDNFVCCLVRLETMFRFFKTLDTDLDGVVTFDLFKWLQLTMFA
T1 sequence (P04632 1-268 partner): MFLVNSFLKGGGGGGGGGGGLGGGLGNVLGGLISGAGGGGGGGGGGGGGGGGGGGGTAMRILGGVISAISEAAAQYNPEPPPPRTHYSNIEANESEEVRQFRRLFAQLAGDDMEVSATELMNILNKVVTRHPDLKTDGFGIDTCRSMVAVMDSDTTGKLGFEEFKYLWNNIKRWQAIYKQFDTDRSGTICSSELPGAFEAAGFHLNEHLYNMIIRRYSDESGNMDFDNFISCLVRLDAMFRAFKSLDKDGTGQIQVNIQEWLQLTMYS
Method in brief: (§1)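 Fluorescence increase from the cleaved 5-FAM/QXL 520 substrate, read at 490/520 nm, gave activity. Calcium was supplied with the substrate to activate the enzyme in situ after a 25C enzyme-inhibitor preincubation, and IC50s were fit from initial slopes.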

[1] = system: Calpain activity in SH-SY5Y cells (SBDP-150); test: SH-SY5Y Spectrin western blot assay (SBDP-150 breakdown product, A23187-induced); format: cell-based; conditions: Homo sapiens, read-out: SH-SY5Y Spectrin IC50
Human Calpain 2/NS1 = target: T2, Human Calpain 2/NS1 (Homo sapiens, UniProt P17655); test: Calpain inhibition continuous fluorescence (FRET) assay, Human Calpain 2/NS1; format: biochemical
T2 sequence (P17655 1-700): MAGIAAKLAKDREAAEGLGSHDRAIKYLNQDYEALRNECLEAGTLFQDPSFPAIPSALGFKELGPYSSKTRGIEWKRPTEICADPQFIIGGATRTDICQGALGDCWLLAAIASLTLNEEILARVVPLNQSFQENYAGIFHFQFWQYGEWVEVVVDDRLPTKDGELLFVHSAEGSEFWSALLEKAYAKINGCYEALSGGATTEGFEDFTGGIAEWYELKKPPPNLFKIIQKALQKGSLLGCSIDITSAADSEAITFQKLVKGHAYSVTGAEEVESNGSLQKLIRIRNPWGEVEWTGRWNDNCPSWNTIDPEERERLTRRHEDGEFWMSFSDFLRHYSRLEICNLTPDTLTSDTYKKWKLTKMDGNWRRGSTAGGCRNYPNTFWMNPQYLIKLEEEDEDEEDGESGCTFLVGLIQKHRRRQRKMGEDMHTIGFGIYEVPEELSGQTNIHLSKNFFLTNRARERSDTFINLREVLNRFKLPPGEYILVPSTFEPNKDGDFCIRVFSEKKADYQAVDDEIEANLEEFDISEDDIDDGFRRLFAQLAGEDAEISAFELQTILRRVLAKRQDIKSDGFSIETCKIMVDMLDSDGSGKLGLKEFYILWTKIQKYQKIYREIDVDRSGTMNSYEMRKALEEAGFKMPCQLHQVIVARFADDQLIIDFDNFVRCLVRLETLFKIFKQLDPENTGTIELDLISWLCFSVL
T2 sequence (P04632 1-268 partner): T1 sequence (P04632 1-268 partner)
Method in brief: as §1

Human Calpain 9/NS1 = target: T3, Human Calpain 9/NS1 (Homo sapiens, UniProt O14815); test: Calpain inhibition continuous fluorescence (FRET) assay, Human Calpain 9/NS1; format: biochemical
T3 sequence (O14815 1-690): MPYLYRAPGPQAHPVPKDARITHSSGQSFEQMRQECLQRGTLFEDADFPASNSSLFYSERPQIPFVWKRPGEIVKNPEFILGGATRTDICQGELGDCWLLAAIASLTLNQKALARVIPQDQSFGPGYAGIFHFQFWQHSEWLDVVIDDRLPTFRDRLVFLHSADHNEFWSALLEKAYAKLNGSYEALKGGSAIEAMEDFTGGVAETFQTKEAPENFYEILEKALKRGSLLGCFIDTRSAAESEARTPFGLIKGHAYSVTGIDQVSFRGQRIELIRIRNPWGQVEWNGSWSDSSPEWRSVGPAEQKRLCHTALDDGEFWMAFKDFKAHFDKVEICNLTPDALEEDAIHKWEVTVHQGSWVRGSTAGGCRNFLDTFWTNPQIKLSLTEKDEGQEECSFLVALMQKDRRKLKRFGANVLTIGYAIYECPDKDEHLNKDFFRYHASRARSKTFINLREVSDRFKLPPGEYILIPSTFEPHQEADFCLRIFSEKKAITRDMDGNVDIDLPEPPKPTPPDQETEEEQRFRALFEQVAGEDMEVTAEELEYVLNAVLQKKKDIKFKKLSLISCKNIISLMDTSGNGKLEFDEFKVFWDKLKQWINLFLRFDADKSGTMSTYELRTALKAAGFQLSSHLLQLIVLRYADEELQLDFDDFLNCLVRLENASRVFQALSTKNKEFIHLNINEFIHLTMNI
T3 sequence (P04632 1-268 partner): T1 sequence (P04632 1-268 partner)
Method in brief: as §1

[2] = system: Calpain activity in SH-SY5Y cells; test: SH-SY5Y + AMC fluorescence assay (Suc-LLVY-AMC substrate); format: cell-based
[3] = Column A, read-out: Human Calpain 1/NS1 IC50
[4] = Column B, read-out: Human Calpain 2/NS1 IC50
[5] = Column C, read-out: Human Calpain 9/NS1 IC50
[6] = read-out: SH-SY5Y + AMC IC50, Column E
[7] = Column D, SH-SY5Y cells, A23187-induced SBDP-150
[8] = Column E, read-out: SH-SY5Y + AMC IC50

SMILES	IC50 (Human Calpain 1/NS1; [3]) [µM]	IC50 (Human Calpain 2/NS1; [4]) [µM]	IC50 (Human Calpain 9/NS1; [5]) [µM]	IC50 [1, 7] [µM]	IC50 [2, 8] [µM]	IC50 ([1]; SH-SY5Y) [µM]	IC50 [2, 6] [µM]	IC50 (Human Calpain 1/NS1) [µM]	IC50 (Human Calpain 2/NS1) [µM]	IC50 (Human Calpain 9/NS1) [µM]
Cc1cc(C(=O)N[C@@H](Cc2ccccc2)C(=O)C(N)=O)n(-c2ccc(CNC(=O)OCc3ccccc3)cc2)n1 [Compound 153, Benzyl (S)-(4-(5-((4-amino-3,4-dioxo-1-phenylbutan-2-yl)carbamoyl)-3-methyl-1H-pyrazol-1-yl)benzyl)carbamate]	< 3	< 3	< 3	–	–	< 10	> 25	–	–	–
CC(=O)NCc1ccc(-n2nc(C)cc2C(=O)N[C@@H](Cc2ccccc2)C(=O)C(N)=O)cc1 [Compound 157, (S)-1-(4-(acetamidomethyl)phenyl)-N-(4-amino-3,4-dioxo-1-phenylbutan-2-yl)-3-methyl-1H-pyrazole-5-carboxamide]	< 3	< 3	< 3	–	–	> 25	> 25	–	–	–
Cc1cc(C(=O)N[C@@H](Cc2ccccc2)C(=O)C(N)=O)n(-c2ccc(CNCc3ccccc3)cc2)n1 [Compound 160, (S)—N-(4-amino-3,4-dioxo-1-phenylbutan-2-yl)-1-(4-((benzylamino)methyl)phenyl)-3-methyl-1H-pyrazole-5-carboxamide hydrochloride]	< 3	< 3	< 3	10 to 25	> 25	–	–	–	–	–
Cc1cc(C(=O)N[C@@H](Cc2ccccc2)C(=O)C(N)=O)n(-c2ccc(CNC(=O)Oc3ccccc3)cc2)n1 [Compound 162, Phenyl (S)-(4-(5-((4-amino-3,4-dioxo-1-phenylbutan-2-yl)carbamoyl)-3-methyl-1H-pyrazol-1-yl)benzyl)carbamate]	–	–	–	–	–	> 25	> 25	< 3	< 3	< 3
Cc1cccc(-c2nn(C)cc2C(=O)N[C@@H](Cc2ccccc2)C(=O)C(N)=O)c1 [Compound 163, (S)—N-(4-amino-3,4-dioxo-1-phenylbutan-2-yl)-1-methyl-3-(M-tolyl)-1H-pyrazole-4-carboxamide]	< 3	< 3	< 3	10 to 25	10 to 25	–	–	–	–	–
Cn1ncc(C(=O)N[C@@H](Cc2ccccc2)C(=O)C(N)=O)c1-c1ccccn1 [Compound 164, (S)—N-(4-amino-3,4-dioxo-1-phenylbutan-2-yl)-1-methyl-5-(pyridin-2-yl)-1H-pyrazole-4-carboxamide]	< 3	< 3	< 3	> 25	> 25	–	–	–	–	–
Cc1ccc(-c2nn(C)cc2C(=O)N[C@@H](Cc2ccccc2)C(=O)C(N)=O)cc1 [Compound 166, (S)—N-(4-amino-3,4-dioxo-1-phenylbutan-2-yl)-1-methyl-3-(p-tolyl)-1H-pyrazole-4-carboxamide]	< 3	< 3	< 3	10 to 25	> 25	–	–	–	–	–

Continued, in another order:

IC50 (Human Calpain 1/NS1; [3]) [µM]	IC50 (Human Calpain 2/NS1; [4]) [µM]	IC50 (Human Calpain 9/NS1; [5]) [µM]	IC50 [1, 7] [µM]	IC50 [2, 8] [µM]	SMILES	IC50 ([1]; SH-SY5Y) [µM]	IC50 [2, 6] [µM]	IC50 (Human Calpain 1/NS1) [µM]	IC50 (Human Calpain 2/NS1) [µM]	IC50 (Human Calpain 9/NS1) [µM]
< 3	< 3	< 3	10 to 25	> 25	Cc1cc(C(=O)N[C@@H](Cc2ccccc2)C(=O)C(N)=O)n(-c2ccc(CNC(=O)c3ccccc3)cc2)n1 [Compound 154, (S)—N-(4-amino-3,4-dioxo-1-phenylbutan-2-yl)-1-(4-(benzamidomethyl)phenyl)-3-methyl-1H-pyrazole-5-carboxamide]	–	–	–	–	–
< 3	< 3	< 3	< 10	> 25	Cc1cc(C(=O)N[C@@H](Cc2ccccc2)C(=O)C(N)=O)n(-c2ccc(CNS(=O)(=O)c3ccccc3)cc2)n1 [Compound 156, (S)—N-(4-amino-3,4-dioxo-1-phenylbutan-2-yl)-3-methyl-1-(4-(phenylsulfonamidomethyl)phenyl)-1H-pyrazole-5-carboxamide]	–	–	–	–	–
< 3	< 3	< 3	10 to 25	> 25	COC(=O)NCc1ccc(-n2nc(C)cc2C(=O)N[C@@H](Cc2ccccc2)C(=O)C(N)=O)cc1 [Compound 158, Methyl (S)-(4-(5-((4-amino-3,4-dioxo-1-phenylbutan-2-yl)carbamoyl)-3-methyl-1H-pyrazol-1-yl)benzyl)carbamate]	–	–	–	–	–
< 3	< 3	< 3	10 to 25	> 25	Cc1cc(C(=O)N[C@@H](Cc2ccccc2)C(=O)C(N)=O)n(-c2ccc(CNC(=O)Cc3ccccc3)cc2)n1 [Compound 159, (S)—N-(4-amino-3,4-dioxo-1-phenylbutan-2-yl)-3-methyl-1-(4-((2-phenylacetamido)methyl)phenyl)-1H-pyrazole-5-carboxamide]	–	–	–	–	–
< 3	< 3	< 3	10 to 25	< 10	Cn1cc(C(=O)N[C@@H](Cc2ccc(F)cc2)C(=O)C(N)=O)c(-c2ccccc2)n1 [Compound 168, (S)—N-(4-amino-1-(4-fluorophenyl)-3,4-dioxobutan-2-yl)-1-methyl-3-phenyl-1H-pyrazole-4-carboxamide]	–	–	–	–	–
< 3	< 3	< 3	> 25	> 25	Cn1cc(C(=O)N[C@@H](Cc2ccccc2)C(=O)C(N)=O)c(-c2ccncc2)n1 [Compound 170, (S)—N-(4-amino-3,4-dioxo-1-phenylbutan-2-yl)-1-methyl-3-(pyridin-4-yl)-1H-pyrazole-4-carboxamide]	–	–	–	–	–
< 3	3 to 10	< 3	> 25	10 to 25	Cc1ccccc1-c1nn(C)cc1C(=O)N[C@@H](Cc1ccccc1)C(=O)C(N)=O [Compound 171, (S)—N-(4-amino-3,4-dioxo-1-phenylbutan-2-yl)-1-methyl-3-(o-tolyl)-1H-pyrazole-4-carboxamide]	–	–	–	–	–
